# Data reported in patent publication US7776847B2, “Benzisothiazoles useful for treating or preventing HCV infection” (priority 2005, dated 2010).
# Tested on: HCV replicon
# Assay: HCV replicon luciferase reporter assay
# Type: cell-based
# Conditions: Hepatitis C virus, Table 5; read-out: IC50
# In short: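 Replicon-bearing dividing cells seeded at 5,000–7,500 cells/well, grown 24 h at 37° C/5% CO2, then exposed to test compound at various concentrations for a further 24–48 h. Replication/translation read by luciferase reporter; IC50 taken as compound amount giving 50% reduction in luciferase activity.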
row,SMILES,IC50
1,"O=C(NCCCNc1nsc2ncccc12)C1CCN(c2nccc(C(F)(F)F)n2)CC1 [Compound 533, N-(3-(isothiazolo[5,4-b]pyridin-3-ylamino)propyl)-1-(4-(trifluoromethyl)pyrimidin-2-yl)piperidine-4-carboxamide]",< 5 µM
2,"CC(C)(C)OC(=O)N[C@H](C(=O)NCCNc1nsc2ccccc12)c1ccccc1 [Entry 11, (S)-tert-Butyl 2-(2-(Benzo[d]isothiazol-3-ylamino)ethylamino)-2-oxo-1-phenylethylcarbamate]",< 5 µM
3,"O=C(c1ccccc1)c1cccnc1C(=O)NCCNc1nsc2ccccc12 [Entry 12, N-(2-(Benzo[d]isothiazol-3-ylamino)ethyl)-3-benzoylpicolinamide]",< 5 µM
4,"Cc1cccc(C(=O)NCCNc2nsc3ccccc23)n1 [Entry 13, N-(2-(Benzo[d]isothiazol-3-ylamino)ethyl)-6-methylpicolinamide]",> 5 µM
5,"COc1ccc(C(=O)NCCNc2nsc3ccccc23)cc1 [Entry 14, N-(2-(Benzo[d]isothiazol-3-ylamino)ethyl)-4-methoxybenzamide]",< 5 µM
6,"CC(C)[C@H](NC(=O)OC(C)(C)C)C(=O)NCCNc1nsc2ccccc12 [Entry 18, (S)-tert-Butyl 1-(2-(Benzo[d]isothiazol-3-ylamino)ethylamino)-3-methyl-1-oxobutan-2-ylcarbamate]",< 5 µM
7,"O=C(NCCNc1nsc2ccccc12)c1ccccn1 [Entry 25, N-(2-(Benzo[d]isothiazol-3-ylamino)ethyl)picolinamide]",< 5 µM
8,"O=C(NCCNc1nsc2ccccc12)c1cccc(Br)n1 [Entry 27, N-(2-(Benzo[d]isothiazol-3-ylamino)ethyl)-6-bromopicolinamide]",> 5 µM
9,"O=C(NCCNc1nsc2ccccc12)c1cccc(Cl)c1 [Entry 33, N-(2-(Benzo[d]isothiazol-3-ylamino)ethyl)-3-chlorobenzamide]",> 5 µM
10,"O=C(NCCNc1nsc2ccccc12)c1c(Cl)cccc1Cl [Entry 41, N-(2-(Benzo[d]isothiazol-3-ylamino)ethyl)-2,6-dichlorobenzamide]",> 5 µM
11,"O=C(CC1CC1)NCCNc1nsc2ccccc12 [Entry 71, N-(2-(Benzo[d]isothiazol-3-ylamino)ethyl)-2-cyclopropylacetamide]",> 5 µM
12,"O=C(NCCNc1nsc2ccccc12)C1CCCNC1 (stereo not drawn) [Entry 73, N-(2-(Benzo[d]isothiazol-3-ylamino)ethyl)piperidine-3-carboxamide]",> 5 µM
13,"N[C@H](C(=O)NCCNc1nsc2ccccc12)c1ccccc1 [Entry 74, (S)-2-Amino-N-(2-(benzo[d]isothiazol-3-ylamino)ethyl)-2-phenylacetamide]",> 5 µM
14,"CC(C)[C@H](N)C(=O)NCCNc1nsc2ccccc12 [Entry 75, (S)-2-Amino-N-(2-(benzo[d]isothiazol-3-ylamino)ethyl)-3-methylbutanamide]",> 5 µM
15,"Cc1cccnc1C(=O)NCCNc1nsc2ccccc12 [Entry 76, N-(2-(Benzo[d]isothiazol-3-ylamino)ethyl)-3-methylpicolinamide]",< 5 µM
16,"COC(=O)c1ccc(C(=O)NCCNc2nsc3ccccc23)nc1 [Entry 77, Methyl 6-(2-(Benzo[d]isothiazol-3-ylamino)ethylcarbamoyl)nicotinate]",> 5 µM
17,"O=C(O)c1ccc(C(=O)NCCNc2nsc3ccccc23)nc1 [Entry 78, 6-(2-(Benzo[d]isothiazol-3-ylamino)ethylcarbamoyl)nicotinic Acid]",> 5 µM
18,"O=C(NCCNc1nsc2ccccc12)c1ccc2ccccc2n1 [Entry 79, N-(2-(Benzo[d]isothiazol-3-ylamino)ethyl)quinoline-2-carboxamide]",> 5 µM
19,"COC(=O)c1cccc(C(=O)NCCNc2nsc3ccccc23)n1 [Entry 80, Methyl 6-(2-(Benzo[d]isothiazol-3-ylamino)ethylcarbamoyl)picolinate]",> 5 µM
20,"O=C(O)c1cccc(C(=O)NCCNc2nsc3ccccc23)n1 [Entry 81, 6-(2-(Benzo[d]isothiazol-3-ylamino)ethylcarbamoyl)picolinic Acid]",> 5 µM
21,"O=C(Cc1c[nH]c2ccccc12)NCCNc1nsc2ccccc12 [Entry 82, N-(2-(Benzo[d]isothiazol-3-ylamino)ethyl)-2-(1H-indol-3-yl)acetamide]",> 5 µM

row,SMILES,IC50
1,"COc1cccc(S(=O)(=O)NCCCNc2nsc3ccccc23)c1 [Entry 220, N-(3-(benzo[d]isothiazol-3-ylamino)propyl)-3-methoxybenzenesulfonamide]",< 5 µM
2,"O=S(=O)(NCCCNc1nsc2ccccc12)c1cc(F)c(Br)cc1F [Entry 221, N-(3-(benzo[d]isothiazol-3-ylamino)propyl)-4-bromo-2,5-difluorobenzenesulfonamide]",< 5 µM
3,"O=S(=O)(NCCCNc1nsc2ccccc12)c1ccc(Br)s1 [Entry 222, N-(3-(benzo[d]isothiazol-3-ylamino)propyl)-5-bromothiophene-2-sulfonamide]",< 5 µM
4,"O=S(=O)(NCCCNc1nsc2ccccc12)c1ccc(Oc2ccc(Cl)cc2)cc1 [Entry 223, N-(3-(benzo[d]isothiazol-3-ylamino)propyl)-4-(4-chlorophenoxy)benzenesulfonamide]",< 5 µM
5,"N#Cc1ccc(NCCCNc2nsc3ccccc23)nc1 [Entry 224, 6-(3-(benzo[d]isothiazol-3-ylamino)propylamino)pyridine-3-carbonitrile]",< 5 µM
6,"COC(=O)c1cnc(NCCCNc2nsc3ccccc23)nc1C(F)(F)F [Entry 225, methyl 2-(3-(benzo[d]isothiazol-3-ylamino)propylamino)-4-(trifluoromethyl)pyrimidine-5-carboxylate]",< 5 µM
7,"Clc1ccc(NCCCNc2nsc3ccccc23)nc1 [Entry 226, N-(3-(5-chloropyridin-2-ylamino)propyl)benzo[d]isothiazol-3-amine]",< 5 µM
8,"Cc1ccnc(NCCCNc2nsc3ccccc23)c1 [Entry 227, N-(3-(4-methylpyridin-2-ylamino)propyl)benzo[d]isothiazol-3-amine]",< 5 µM
9,"FC(F)(F)c1ccc(NCCCNc2nsc3ccccc23)nc1 [Entry 228, N-(3-(5-(trifluoromethyl)pyridin-2-ylamino)propyl)benzo[d]isothiazol-3-amine]",< 5 µM
10,"N#Cc1ccnc(NCCCNc2nsc3ccccc23)c1 [Entry 229, 2-(3-(benzo[d]isothiazol-3-ylamino)propylamino)pyridine-4-carbonitrile]",< 5 µM
11,"Clc1cccc(NCCCNc2nsc3ccccc23)n1 [Entry 230, N^1-(benzo[d]isothiazol-3-yl)-N^3-(6-chloropyridin-2-yl)propane-1,3-diamine]",< 5 µM
12,"FC(F)(F)c1ccnc(NCCCNc2nsc3ccccc23)c1 [Entry 231, N^1-(benzo[d]isothiazol-3-yl)-N^3-(4-(trifluoromethyl)pyridin-2-yl)propane-1,3-diamine]",< 5 µM
13,"O=C(NCCCNc1nsc2ccccc12)c1cccc(OCC(O)CN2CCOCC2)c1 (stereo not drawn) [Entry 232, N-(3-(benzo[d]isothiazol-3-ylamino)propyl)-3-(2-hydroxy-3-morpholinopropoxy)benzamide]",< 5 µM
14,"COc1cccc(N2CCN(CC(O)COc3cccc(C(=O)NCCCNc4nsc5ccccc45)c3)CC2)c1 (stereo not drawn) [Entry 233, N-(3-(benzo[d]isothiazol-3-ylamino)propyl)-3-(2-hydroxy-3-(4-(3-methoxyphenyl)piperazin-1-yl)propoxy)benzamide]",< 5 µM
15,"O=C(NCCCNc1nsc2ccccc12)c1ccc(F)cc1 [Entry 234, N-(3-(benzo[d]isothiazol-3-ylamino)propyl)-4-fluorobenzamide]",< 5 µM
16,"O=C(NCCCNc1nsc2ccccc12)c1ccc(OCc2ccncc2)cc1 [Entry 235, N-(3-(benzo[d]isothiazol-3-ylamino)propyl)-4-(pyridin-4-ylmethoxy)benzamide]",< 5 µM
17,"COc1cccc(COc2ccc(C(=O)NCCCNc3nsc4ccccc34)cc2)c1 [Entry 236, N-(3-(benzo[d]isothiazol-3-ylamino)propyl)-4-(3-methoxybenzyloxy)benzamide]",< 5 µM
18,"COc1ccc(COc2ccc(C(=O)NCCCNc3nsc4ccccc34)cc2)cc1OC [Entry 237, N-(3-(benzo[d]isothiazol-3-ylamino)propyl)-4-(3,4-dimethoxybenzyloxy)benzamide]",< 5 µM
19,"O=C(O)COc1ccc(C(=O)NCCCNc2nsc3ccccc23)cc1 [Entry 238, 2-(4-(3-(benzo[d]isothiazol-3-ylamino)propylcarbamoyl)phenoxy) acetic acid]",> 5 µM
20,"CN(CCCNc1nsc2ccccc12)S(=O)(=O)c1ccccc1C(F)(F)F [Entry 240, N-(3-(benzo[d]isothiazol-3-ylamino)propyl)-N-methyl-2-(trifluoromethyl)benzenesulfonamide]",< 5 µM
21,"COc1ccc(-c2ccc(CNCCCNc3nsc4nccnc34)cc2)cc1 [Entry 241, N^1-(isothiazolo[5,4-b]pyrazin-3-yl)-N^3-((4′-methoxybiphenyl-4-yl)methyl)propane-1,3-diamine]",< 5 µM
